Experiments:
Type in all cases: biochemical
Aurora-A = biological target: T1, Aurora-A (Homo sapiens, UniProt O14965); assay: Aurora-A kinase assay; conditions: 8 μM ATP, 22° C., 90 min
T1 construct: purchased Upstate; host or cells: Sf21 insect cells
T1 sequence (O14965 1-403): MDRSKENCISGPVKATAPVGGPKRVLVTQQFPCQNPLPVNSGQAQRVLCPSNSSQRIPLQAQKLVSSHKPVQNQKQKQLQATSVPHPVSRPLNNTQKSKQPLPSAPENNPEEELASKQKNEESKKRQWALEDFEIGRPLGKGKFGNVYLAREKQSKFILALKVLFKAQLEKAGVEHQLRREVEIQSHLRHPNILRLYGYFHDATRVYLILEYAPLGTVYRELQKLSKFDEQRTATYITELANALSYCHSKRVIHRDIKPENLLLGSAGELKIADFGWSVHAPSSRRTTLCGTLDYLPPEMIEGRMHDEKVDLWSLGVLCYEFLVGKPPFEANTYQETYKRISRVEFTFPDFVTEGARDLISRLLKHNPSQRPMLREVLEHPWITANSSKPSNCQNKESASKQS
Description: Recombinant Aurora-A protein, expressed in Sf21 insect cells, was purchased from Upstate. The kinase substrate used was the biotinylated peptide having the amino acid sequence biotin-LNYNRRLSLGPMF, which was purchased from Jerini A G in Berlin.
Aurora-A [15 nM in the test mixture, test volume 5 μl] was incubated in the presence of various concentrations of test substances (0 μM and 10 measurement points within the range 0.001-20 μM in duplicate) in assay buffer [25 mM HEPES pH 7.4, 3 mM MnCl2, 5 mM MnCl2, 0.1 mM Na ortho-vanadate, 2.0 mM dithiothreitol, 0.05% bovine serum albumin (BSA), 0.01% Triton X-100, 8 μM ATP, 4 nCi/μl gama-P33-ATP, 5.0 μM substrate peptide biotin-LNYNRRLSLGPMF, 1.0% dimethyl sulphoxide] at 22° C. for 90 min. The reaction was stopped by adding 12.5 μl of an EDTA/detection solution [16 mM EDTA, 40 mM ATP, 0.08% Triton X-100, 4 mg/ml PVT streptavidin SPA beads (from Amersham)]. After incubation for 10 minutes, the SPA beads were pelleted by centrifugation at 1000×G for 10 minutes. Measurement took place in a PerkinElmer Topcount scintillation counter.
The measured data were normalized to 0% inhibition (enzyme reaction without inhibitor) and 100% inhibition (enzyme reaction in the presence of 0.1 μM staurosporine (from Sigma)). The IC50 values were determined by means of a 4-parameter fit using the company's own software.

c-kit = biological target: T2, c-kit (Homo sapiens, UniProt P10721); assay: c-Kit kinase assay; conditions: 10 μM ATP, 22° C., 30 min
T2 construct: made in house; host or cells: E. coli
T2 sequence (P10721 26-976): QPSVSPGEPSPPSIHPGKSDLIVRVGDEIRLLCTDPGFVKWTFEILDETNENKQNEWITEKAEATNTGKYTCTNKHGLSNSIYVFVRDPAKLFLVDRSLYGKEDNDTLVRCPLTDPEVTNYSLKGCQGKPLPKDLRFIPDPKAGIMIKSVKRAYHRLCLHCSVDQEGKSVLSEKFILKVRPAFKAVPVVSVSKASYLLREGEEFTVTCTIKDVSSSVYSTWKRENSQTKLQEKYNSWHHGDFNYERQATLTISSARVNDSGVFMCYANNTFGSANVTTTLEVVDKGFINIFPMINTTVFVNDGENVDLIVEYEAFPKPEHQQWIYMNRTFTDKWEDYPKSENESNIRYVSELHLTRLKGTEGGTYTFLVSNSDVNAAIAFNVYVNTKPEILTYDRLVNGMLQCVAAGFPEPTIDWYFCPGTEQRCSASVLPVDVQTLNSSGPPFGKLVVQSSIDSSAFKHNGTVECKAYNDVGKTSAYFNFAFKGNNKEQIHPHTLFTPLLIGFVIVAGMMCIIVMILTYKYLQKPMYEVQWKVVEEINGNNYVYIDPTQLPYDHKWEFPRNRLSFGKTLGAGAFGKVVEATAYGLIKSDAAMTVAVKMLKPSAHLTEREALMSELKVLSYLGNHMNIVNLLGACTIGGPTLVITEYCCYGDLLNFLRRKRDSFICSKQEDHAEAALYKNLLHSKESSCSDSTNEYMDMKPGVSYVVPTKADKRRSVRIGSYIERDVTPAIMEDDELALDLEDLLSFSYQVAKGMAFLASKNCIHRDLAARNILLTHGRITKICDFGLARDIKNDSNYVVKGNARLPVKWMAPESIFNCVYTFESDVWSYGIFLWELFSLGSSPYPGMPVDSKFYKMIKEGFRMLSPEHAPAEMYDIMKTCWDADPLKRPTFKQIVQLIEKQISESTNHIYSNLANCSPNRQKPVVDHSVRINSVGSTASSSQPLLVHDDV
Description: Recombinant c-kit protein was expressed in E. coli and then purified. The kinase substrate used was the biotinylated peptide having the amino acid sequence biotin-poly GluTyr, which was purchased from CisBio.
C-kit [test volume 5 μl] was incubated in the presence of various concentrations of test substances (0 μM, and 10 measurement points within the range 0.001-20 μM in duplicate) in assay buffer [50 mM HEPES pH 7.0, 1.0 mM MgCl2, […], 0.1 mM Na ortho-vanadate, 1.0 mM dithiothreitol, 0.001% NP40, 10 μM ATP, 0.03 μM substrate peptide biotin-poly GluTyr, 1.0% dimethyl sulphoxide] at 22° C. for 30 min. The reaction was stopped by adding 5 μl of an EDTA/detection solution [50 mM HEPES pH 7.5, 80 mM EDTA, 0.2% BSA, 0.1 μM streptavidin-XLent (from CisBio), 1 nM PT66-Eu (from PerkinElmer)]. The fluorescence emission at 620 nm and 665 nm after excitation with light of the wavelength 350 nm was measured in a Rubystar HTRF instrument from BMG Labsystems. The measured data (ratio of emission 665 divided by emission 620 multiplied by 10 000) were normalized to 0% inhibition (enzyme reaction without inhibitor) and 100% inhibition (all assay components apart from enzyme). The IC50 values were determined by means of a 4-parameter fit using the company's own software.

KDR = biological target: T3, KDR (Homo sapiens, UniProt P35968); assay: KDR kinase assay; conditions: 1 μM ATP, 22° C., 20 min
T3 construct: made in house; host or cells: SF9 insect cells
T3 sequence (P35968 20-1356, species assumed): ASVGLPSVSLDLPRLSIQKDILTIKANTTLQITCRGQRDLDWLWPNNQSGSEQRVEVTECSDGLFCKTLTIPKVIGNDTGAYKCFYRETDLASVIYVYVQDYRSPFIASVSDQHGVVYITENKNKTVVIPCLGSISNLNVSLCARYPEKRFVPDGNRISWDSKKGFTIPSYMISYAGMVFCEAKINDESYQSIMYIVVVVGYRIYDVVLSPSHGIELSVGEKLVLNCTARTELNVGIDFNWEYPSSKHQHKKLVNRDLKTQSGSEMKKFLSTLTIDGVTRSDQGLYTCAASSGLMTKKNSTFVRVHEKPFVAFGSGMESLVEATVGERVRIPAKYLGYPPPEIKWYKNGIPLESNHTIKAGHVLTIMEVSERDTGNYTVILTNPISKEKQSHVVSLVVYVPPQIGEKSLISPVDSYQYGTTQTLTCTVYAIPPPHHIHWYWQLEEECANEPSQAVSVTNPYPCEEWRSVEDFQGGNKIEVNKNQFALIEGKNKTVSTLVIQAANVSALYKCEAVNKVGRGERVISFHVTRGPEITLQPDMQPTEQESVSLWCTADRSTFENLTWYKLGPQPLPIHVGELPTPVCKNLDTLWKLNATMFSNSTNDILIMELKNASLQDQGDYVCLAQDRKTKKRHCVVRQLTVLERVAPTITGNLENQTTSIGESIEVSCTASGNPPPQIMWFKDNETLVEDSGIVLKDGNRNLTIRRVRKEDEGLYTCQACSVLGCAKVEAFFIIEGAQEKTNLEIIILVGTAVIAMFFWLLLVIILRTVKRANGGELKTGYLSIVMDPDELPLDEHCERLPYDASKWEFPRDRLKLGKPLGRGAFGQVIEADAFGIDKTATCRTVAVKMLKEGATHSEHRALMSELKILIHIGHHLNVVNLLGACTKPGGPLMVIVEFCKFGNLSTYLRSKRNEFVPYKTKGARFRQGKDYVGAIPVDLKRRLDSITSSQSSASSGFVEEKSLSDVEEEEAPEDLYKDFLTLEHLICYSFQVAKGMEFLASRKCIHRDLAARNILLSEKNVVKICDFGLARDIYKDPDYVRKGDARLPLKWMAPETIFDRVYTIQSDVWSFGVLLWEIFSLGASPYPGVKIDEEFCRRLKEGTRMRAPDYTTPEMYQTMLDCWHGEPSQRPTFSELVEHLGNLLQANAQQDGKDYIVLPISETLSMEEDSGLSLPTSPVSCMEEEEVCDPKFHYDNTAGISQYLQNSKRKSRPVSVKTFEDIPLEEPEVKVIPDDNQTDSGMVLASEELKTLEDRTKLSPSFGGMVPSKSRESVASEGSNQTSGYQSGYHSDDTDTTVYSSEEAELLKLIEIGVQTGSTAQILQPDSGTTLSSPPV
Description: Recombinant GST-KDR protein was expressed in SF9 insect cells and then purified. The kinase substrate used was the biotinylated peptide biotin-polyGluAlaTyr from Cisbio International.
GST-KDR [test volume 15 μl] was incubated in the presence of various concentrations of test substances (0 μM, and 10 measurement points within the range 0.001-20 μM in duplicate) in assay buffer [50 mM HEPES pH 7.0, 25 mM MgCl2, 5 mM MgCl2, 0.5 mM Na ortho-vanadate, 1 mM dithiothreitol, 10% glycerol, 1 μM ATP, 23.5 mg/L substrate peptide biotin-polyGluAlaTyr, 1% dimethyl sulphoxide, 1× protease inhibitor mix (from Roche)] at 22° C. for 20 min. The reaction was stopped by adding 5 μl of an EDTA/detection solution [50 mM HEPES pH 7.0, 250 mM EDTA, 0.5% BSA, 22 mg/L streptavidin-XL (from CisBio), 1 mg/L PT66-Eu (from PerkinElmer)]. The fluorescence emission at 620 nm and 665 nm after excitation with light of the wavelength 350 nm was measured in a Rubystar HTRF instrument from BMG Labsystems 60 minutes after addition of the EDTA/detection solution.
The measured data (ratio of emission 665 divided by emission 620 multiplied by 10 000) were normalized to 0% inhibition (enzyme reaction without inhibitor) and 100% inhibition (all assay components apart from enzyme). The IC50 values were determined by means of a 4-parameter fit using the company's own software.

Compound | IC50 (Aurora-A) [nM] | IC50 (c-kit) [nM] | IC50 (KDR) [nM]
C[Si](C)(C)CCS(=O)(=O)N=S(C)(=O)c1ccc2cc1OCCCCNc1nc(ncc1Br)N2 (racemic) [Example 9, (RS)—S-[1^5-Bromo-4-oxa-2,9-diaza-1(2,4)-pyrimidina-3(1,3)-benzenacyclononaphan-3^4-yl]-S-methyl-N-[2-(trimethylsilyl)ethylsulphonyl]sulphoximide] | 652 | > 12500 | 60
C[Si](C)(C)CCS(=O)(=O)N=S(C)(=O)c1ccc2cc1NCCCCNc1nc(ncc1Br)N2 (racemic) [Example 5, (RS)—S-[1^5-Bromo-2,4,9-triaza-1(2,4)-pyrimidina-3(1,3)-benzenacyclononaphan-3^4-yl]-S-methyl-N-[2-(trimethylsilyl)ethylsulphonyl]sulphoximide] | 844 | 164 | 22
CCOC(=O)N=S(C)(=O)c1ccc2cc1NCCCCNc1nc(ncc1Br)N2 (racemic) [Example 1, (RS)—S-[1^5-Bromo-2,4,9-triaza-1(2,4)-pyrimidina-3(1,3)-benzenacyclononaphan-3^4-yl]-N-(ethoxycarbonyl)-S-methylsulphoximide] | 27 | 29 | 61
CCOC(=O)N=S(C)(=O)c1ccc2cc1NCCCCNc1nc(ncc1Br)N2 (single isomer, unassigned) [Example 2] | 26 | 46 | 198
CCOC(=O)N=S(C)(=O)c1ccc2cc1NCCCCNc1nc(ncc1I)N2 (racemic) [Example 4, (RS)—N-(Ethoxycarbonyl)-S-[1^5-iodo-2,4,9-triaza-1(2,4)-pyrimidina-3(1,3)-benzenacyclononaphan-3^4-yl]-S-methylsulphoximide] | 31 | 23 | 9
CCNC(=O)N=S(C)(=O)c1ccc2cc1NCCCCNc1nc(ncc1Br)N2 (racemic) [Example 6, (RS)—S-[1^5-Bromo-2,4,9-triaza-1(2,4)-pyrimidina-3(1,3)-benzenacyclononaphan-3^4-yl]-N-(ethylcarbamoyl)-S-methylsulphoximide] | 21 | 14 | 22
CCOC(=O)N=S(C)(=O)c1ccc2cc1NCCCCNc1nc(ncc1Br)N2 (single isomer, unassigned) [Example 3] | 77 | 64 | 289
CCCS(=O)(=O)N=S(C)(=O)c1ccc2cc1NCCCCNc1nc(ncc1Br)N2 (racemic) [Example 7, (RS)—S-[1^5-Bromo-2,4,9-triaza-1(2,4)-pyrimidina-3(1,3)-benzenacyclononaphan-3^4-yl]-S-methyl-N-(propylsulphonyl)sulphoximide] | 44 | 17 | 7
CCCOC(=O)N=S(C)(=O)c1ccc2cc1OCCCCNc1nc(ncc1Br)N2 (racemic) [Example 8, (RS)—S-[1^5-Bromo-4-oxa-2,9-diaza-1(2,4)-pyrimidina-3(1,3)-benzenacyclononaphan-3^4-yl]-S-methyl-N-(propoxycarbonyl)sulphoximide] |  | 357 | 136

From patent publication US20070191393A1, “Macrocyclic anilinopyrimidines with substituted sulphoximine as selective inhibitors of cell cycle kinases” (priority 2006, published 2007)
